US20260125359A1, “HETEROARYL COMPOUNDS AS MULTI-TARGET PROTEIN KINASE INHIBITORS” (FUJIAN HAIXI PHARMACEUTICALS CO., LTD., priority 2023, published 2026)

Tested on: M-NFS-60 cells
Assay: M-NFS-60 cell in vitro assay (CCK, 48 h, M-CSF factor medium)
Type: cell-based
Settings: M-NFS-60 cells; read-out: M-NFS-60cellassay IC50
Protocol: To determine the inhibitory activity of compounds on M-NFS-60 cells.
• M-NFS-60 cell line (ATCC, Cat. No.: CRL-1838) • RPMI-1640 medium (Gibco, domestic subpackage, Cat. No.: C11875500BT) • Recombinant Mouse CSF1/M-CSF (Sino Biological Inc., Cat. No.: 51112-MNAH) • PAN/Serum (BioTECH, Cat. No.: P30-2602) • Trypsin/0.05% Trypsin-EDTA (Gibco, Cat. No.: 25300-062) • 0.4% Trypan Blue (Sigma, Cat. No.: T8154-20 ml) • Penicillin-Streptomycin (Hyclone, Cat. No.: SV30010) • DMSO (Solarbio, Cat. No.: D8371) • PBS (Solarbio, Cat. No.: P1020) • CCK (AbMole BioScience, Cat. No.: M4839-500Tests)
• 1) M-CSF factor stock solution: take 10 μg of powdered m-CSF factor, add 0.4 ml of saline, formulate 25 ug/ml and store at −80° C. • 2) M-CSF factor (25 ng/ml) medium: • 1640 (Gibco)+10% PAN+100×Penicillin-Streptomycin+100×M-CSF stock solution • 3) Complete medium: • 1640 (Gibco)+10% PAN+100×Penicillin-Streptomycin • 4) Compound preparation: 2-3 mg of the compound was added to DMSO to formulate a 30 mM stock solution, −80° C. refrigerator storage
• 1) Cell resuscitation: the frozen cells in the cryovial were thawed rapidly by shaking in a 37° C. water bath, then 4 mL of medium was added. After mixing evenly, they were centrifuged at 125×g for 5 min, and the supernatant was discarded. The cells were resuspended and transferred to the culture flasks, and were cultured in a 5% CO2 fully saturated humidity incubator. • 2) Cell passaging: M-NFS-60 cells are semi-suspension cells, which were collected directly in a 15 mL centrifuge tube, centrifuged at 125×g for 5 min. and the supernatant was discarded. The cells were resuspended and passaged into new culture flasks at a ratio of 1:5 to 1:10. • 3) After the newly resuscitated cells were passaged 1-2 times for cell stabilization, compound inhibition assays were started when the cells were in the logarithmic growth phase. • (a) Cell collection and counting: the same as the cell passaging step, centrifuge in two tubes, one tube with M-CSF factor medium to resuspend the cells, the other tube with complete medium to resuspend the cells. Take 10 μL of cell suspension in each tube, and count the cells by Tepan blue staining. • (b) Dilute the cell solution according to the concentration of inoculated cells respectively, the concentration of M-NFS-60 cells inoculated with factor was 5.56×10^4 cells/mL, and the concentration of inoculated without factor was 5×10^4 cells/mL. • (c) Seed plate: 384 well plate inoculated with M-NFS-60 cells, 36 uL/well, triplicate wells, the number of inoculated cells was equivalent to 2000 cells/well, set with blank control, factor free negative control, normal control, DMSO control and experimental wells. The cells were placed in a 5% CO2 fully saturated humidity incubator for 4 h. • (d) Sampling compounds: 96 well plates were used for compound preparation. The compound solution prepared in advance was diluted to corresponding gradient concentration with DMSO. An appropriate amount of the diluted solution in the previous step was added to an equal volume of factor containing medium. The 96 well plates were centrifuged at 1000 rpm for 5 min, which played the role of defoaming and spinning down droplets and condensation. Remove the 384 well plate from the incubator, add the diluted compound solution into each well sequentially, 4 μL/well; DMSO wells and normal wells were added with corresponding factor containing medium, 4 μL/well. Then it was put into CO2 incubator for 48 h. • (e) After incubation for 48 h, CCK was added to each well, 4 uL, and the plates were placed in the incubator for another 2 h, and then the OD (optical density) value at 450 nm was measured by microplate reader.
The IC50 values for each test compound were fitted using professional graphing and analysis software.

`Cc1cccc(C(=O)Nc2cccc3c2CCC3Nc2cncc(Br)c2)c1` (stereo not drawn) [Compound 8d, N-(1-((5-bromopyridin-3-yl)amino)-2,3-dihydro-1H-inden-4-yl)-3-methylbenzamide] and `O=C(Nc1cccc2c1CC[C@@H]2Nc1cncc(Br)c1)c1cccc(C2CC2)c1` [Compound 11, (S)—N-(1-((5-bromopyridin-3-yl)amino)-2,3-dihydro-1H-inden-4-yl)-3-cyclopropylbenzamide] fall in the same range of IC50: 50 to 200 nM for the first, 50 to 200 nM for the second.

Compared with `Cn1cc(-c2cncc(NC3CCc4c(NC(=O)c5ccc6c(c5)OC(F)(F)O6)cccc43)c2)cn1` (stereo not drawn) [Compound 9, 2,2-difluoro-N-(1-((5-(1-methyl-1H-pyrazol-4-yl)pyridin-3-yl)amino)-2,3-dihydro-1H-inden-4-yl)benzo[d][1,3]dioxole-5-carboxamide], `Cc1cccc(C(=O)Nc2cccc3c2CC[C@@H]3Nc2cncc(-c3cnn(C)c3)c2)c1` [Compound 12, (S)-3-methyl-N-(1-((5-(1-methyl-1H-pyrazol-4-yl)pyridin-3-yl)amino)-2,3-dihydro-1H-inden-4-yl)benzamide] is lower in IC50: 50 to 200 nM for the first, < 50 nM for the second.

Compared with `O=C(Nc1cccc(C2CC2)c1)c1cccc2c1CC[C@@H]2Nc1cncc(Br)c1` [Compound 10, (S)-1-((5-bromopyridin-3-yl)amino)-N-(3-cyclopropylphenyl)-2,3-dihydro-1H-indene-4-carboxamide], `Cn1cc(-c2cncc(N[C@H]3CCc4c(C(=O)Nc5cccc(C6CC6)c5)cccc43)c2)cn1` [Compound 14aw] is lower in IC50: 50 to 200 nM for the first, < 50 nM for the second. The second is the more potent here.

`Cc1ccc(F)c(NC(=O)c2cccc3c2CC[C@@H]3Nc2cncc(-c3cnn(C)c3)c2)c1` [Compound 14ac] and `Cn1cc(-c2cncc(N[C@H]3CCc4c(C(=O)Nc5ccccc5F)cccc43)c2)cn1` [Compound 14ae] cannot be ordered by IC50: < 50 nM for the first, < 50 nM for the second.

`Cn1cc(-c2cncc(N[C@H]3CCc4c(C(=O)Nc5ccc(Cl)c(C(F)(F)F)c5)cccc43)c2)cn1` [Compound 14ad] and `Cn1cc(-c2cncc(N[C@H]3CCc4c(C(=O)Nc5ccc(Cl)c(F)c5)cccc43)c2)cn1` [Compound 14ao] cannot be ordered by IC50: < 50 nM for the first, < 50 nM for the second.

`COc1cc(NC(=O)c2cccc3c2CC[C@@H]3Nc2cncc(-c3cnn(C)c3)c2)ccc1F` [Compound 14af] and `COc1ccc(NC(=O)c2cccc3c2CC[C@@H]3Nc2cncc(-c3cnn(C)c3)c2)cc1` [Compound 14am] cannot be ordered by IC50: < 50 nM for the first, < 50 nM for the second.

`Cn1cc(-c2cncc(N[C@H]3CCc4c(C(=O)Nc5nn(C)c6ccccc56)cccc43)c2)cn1` [Compound 14ag] and `Cn1cc(-c2cncc(N[C@H]3CCc4c(C(=O)Nc5ccc(Cl)cc5)cccc43)c2)cn1` [Compound 14an] cannot be ordered by IC50: < 50 nM for the first, < 50 nM for the second.

First: CN1CCN(c2cccc(NC(=O)c3cccc4c3CC[C@@H]4Nc3cncc(-c4cnn(C)c4)c3)c2)CC1 [Compound 14ai]
Second: CN1CCN(c2ccc(NC(=O)c3cccc4c3CC[C@@H]4Nc3cncc(-c4cnn(C)c4)c3)cc2)CC1 [Compound 14aq]
The IC50 of the first is lower: 50 to 200 nM for the first, 200 to 500 nM for the second. The first is the more potent here.

First: CN1CCN(Cc2ccc(NC(=O)c3cccc4c3CC[C@@H]4Nc3cncc(-c4cnn(C)c4)c3)cc2)CC1 [Compound 14aj]
Second: CN1CCN(Cc2cccc(NC(=O)c3cccc4c3CC[C@@H]4Nc3cncc(-c4cnn(C)c4)c3)c2)CC1 [Compound 14ar]
The IC50 of the first is lower: 50 to 200 nM for the first, 200 to 500 nM for the second.

`Cn1cc(-c2cncc(N[C@H]3CCc4c(C(=O)Nc5cncc(C(F)(F)F)c5)cccc43)c2)cn1` [Compound 14ak] and `Cn1cc(-c2cncc(N[C@H]3CCc4c(C(=O)Nc5cccc(C(F)(F)F)c5)cccc43)c2)cn1` [Compound 14ax] cannot be ordered by IC50: < 50 nM for the first, < 50 nM for the second.

`Cn1cc(-c2cncc(N[C@H]3CCc4c(C(=O)Nc5ccc(C(F)(F)F)cc5)cccc43)c2)cn1` [Compound 14al] and `Cn1cc(-c2cncc(O[C@H]3CCc4c(C(=O)Nc5ccc(C(F)(F)F)cc5)cccc43)c2)cn1` [Compound 17, (S)-1-((5-(1-methyl-1H-pyrazol-4-yl)pyridin-3-yl)oxy)-N-(4-(trifluoromethyl)phenyl)-2,3-dihydro-1H-indene-4-carboxamide] cannot be ordered by IC50: < 50 nM for the first, < 50 nM for the second.

`Cn1cc(-c2cncc(N[C@H]3CCc4c(C(=O)Nc5cccc(CN6CCCCC6)c5)cccc43)c2)cn1` [Compound 14at] and `Cn1cc(-c2cncc(N[C@H]3CCc4c(C(=O)Nc5cccc(CN6CCCC6)c5)cccc43)c2)cn1` [Compound 14av] fall in the same range of IC50: 50 to 200 nM for the first, 50 to 200 nM for the second.

`CN(C)Cc1ccc(NC(=O)c2cccc3c2CC[C@@H]3Nc2cncc(-c3cnn(C)c3)c2)cc1` [Compound 14au] and `CN(C)Cc1cccc(NC(=O)c2cccc3c2CC[C@@H]3Nc2cncc(-c3cnn(C)c3)c2)c1` [Compound 14az] fall in the same range of IC50: 50 to 200 nM for the first, 50 to 200 nM for the second.

`CN1CCc2cc(NC(=O)c3cccc4c3CC[C@@H]4Nc3cncc(-c4cnn(C)c4)c3)ccc2C1` [Compound 14ay] and `CN1CCc2cc(NC(=O)c3cccc4c3CC[C@@H]4Oc3cncc(-c4cnn(C)c4)c3)ccc2C1` [Compound 19i] fall in the same range of IC50: 50 to 200 nM for the first, 50 to 200 nM for the second.

`Cc1cccc(C(=O)Nc2cccc3c2CC[C@H]3Oc2cncc(-c3cnn(C)c3)c2)c1` [Compound 16, (R)-3-methyl-N-(1-((5-(1-methyl-1H-pyrazol-4-yl)pyridin-3-yl)oxy)-2,3-dihydro-1H-inden-4-yl)benzamide] and `CN1CCc2c(cccc2NC(=O)c2cccc3c2CC[C@@H]3Oc2cncc(-c3cnn(C)c3)c2)C1` [Compound 19g] cannot be ordered by IC50: > 500 nM for the first, > 500 nM for the second.

First: CN1CCc2ccc(NC(=O)c3cccc4c3CC[C@@H]4Oc3cncc(-c4cnn(C)c4)c3)cc2C1 [Compound 18, (S)—N-(2-methyl-1,2,3,4-tetrahydroisoquinolin-7-yl)-1-((5-(1-methyl-1H-pyrazol-4-yl)pyridin-3-yl)oxy)-2,3-dihydro-1H-indene-4-carboxamide]
Second: CN1Cc2ccc(NC(=O)c3cccc4c3CC[C@@H]4Oc3cncc(-c4cnn(C)c4)c3)cc2C1 [Compound 19v]
The IC50 of the first is lower: 50 to 200 nM for the first, 200 to 500 nM for the second. The first is the more potent here.

`CN(C)Cc1ccc(NC(=O)c2cccc3c2CC[C@@H]3Oc2cncc(-c3cnn(C)c3)c2)cc1` [Compound 19c] and `CN(C)Cc1cccc(NC(=O)c2cccc3c2CC[C@@H]3Oc2cncc(-c3cnn(C)c3)c2)c1` [Compound 19e] fall in the same range of IC50: 50 to 200 nM for the first, 50 to 200 nM for the second.

First: CNCc1cccc(NC(=O)c2cccc3c2CC[C@@H]3Oc2cncc(-c3cnn(C)c3)c2)c1 [Compound 19l]
Second: Cn1cc(-c2cncc(O[C@H]3CCc4c(C(=O)Nc5cccc(CN6CCC6)c5)cccc43)c2)cn1 [Compound 19s]
The IC50 of the first is higher: > 500 nM for the first, 200 to 500 nM for the second.

Compared with `Cn1cc(-c2cncc(O[C@H]3CCc4c(C(=O)Nc5cccc(C(C)(C)N)c5)cccc43)c2)cn1` [Compound 19m], `CN1CC(c2cccc(NC(=O)c3cccc4c3CC[C@@H]4Oc3cncc(-c4cnn(C)c4)c3)c2)C1` [Compound 19o] is lower in IC50: 200 to 500 nM for the first, 50 to 200 nM for the second. The second is the more potent here.

Compared with `Cn1cc(-c2cncc(O[C@H]3CCc4c(C(=O)Nc5ccc6c(c5)OCCO6)cccc43)c2)cn1` [Compound 19n], `Cn1cc(-c2cncc(O[C@H]3CCc4c(C(=O)Nc5ccc6c(c5)CNC6)cccc43)c2)cn1` [Compound 19u] is higher in IC50: < 50 nM for the first, > 500 nM for the second.

First: Cc1cc(NC(=O)c2cccc3c2CC[C@@H]3Oc2cncc(-c3cnn(C)c3)c2)ccn1 [Compound 19p]
Second: Cn1cc(-c2cncc(O[C@H]3CCc4c(C(=O)Nc5cncc(F)c5)cccc43)c2)cn1 [Compound 19t]
The IC50 of the first is lower: < 50 nM for the first, 50 to 200 nM for the second. The first is the more potent here.

First: CN(C)Cc1cc(NC(=O)c2cccc3c2CC[C@@H]3Oc2cncc(-c3cnn(C)c3)c2)ccc1C(F)(F)F [Compound 19q]
Second: CN(C)CCOc1cccc(NC(=O)c2cccc3c2CC[C@@H]3Oc2cncc(-c3cnn(C)c3)c2)c1 [Compound 19r]
The IC50 of the first is lower: < 50 nM for the first, 50 to 200 nM for the second.

Work on `Cc1ncc(-c2cnn(C)c2)cc1O[C@H]1CCc2c(C(=O)Nc3ccc(C(F)(F)F)cc3)cccc21` [Compound 19w] yielded an IC50 of 200 to 500 nM.
